Laboratory results as given in ChEMBL document CHEMBL1201862, “PubChem BioAssay data set” (2004).
Active and inactive are the calls of the source.

Key:
Protein Rev = Protein Rev (Human immunodeficiency virus type 1 group M subtype B (isolate HXB2)(HIV-1), UniProt P04618); assay: inhibitors of Rev binding to RRE RNA, dose response, biochemical, fluorescence polarization, HIV-1 (AID 434976); set-up: species or system Human immunodeficiency virus 1
Genome polyprotein = Genome polyprotein (Hepatitis C virus, UniProt Q2Q167); assay: HCV core protein dimerization inhibitors, dose response, biochemical, TR-FRET (AID 2159); set-up: species or system Hepacivirus hominis;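 note: blocks dimerization of HCV core protein measured by TR-FRET between tagged core106 pairs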
[1] = target: Female germline-specific tumor suppressor gld-1 (Caenorhabditis elegans, UniProt Q17339); assay: inhibitors of GLD-1 binding to TGE RNA, dose response, biochemical, fluorescence polarization, C. elegans (AID 2802);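 note: fluorescence polarization of labeled TGE RNA bound by purified gld-1 protein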
[2] = microbe, parasite or virus in culture; format: functional; details: Mycobacterium tuberculosis
[3] = target: Eukaryotic translation initiation factor 4E (Mus musculus, UniProt P63073); assay: eIF4E–eIF4G protein interaction inhibitors, dose response, biochemical, TR-FRET (AID 855); format: functional;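 note: potency for disrupting eIF4E binding to eIF4GI seen as loss of FRET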
Vero [4] = assay: cytotoxicity of synthesized analogs in Vero 76, SAR follow-up, cytotoxicity control for West Nile virus antiviral project, Vero 76 cells (AID 2414); format: functional; details: Chlorocebus sabaeus
Vero [5] = assay: cytotoxicity of synthesized analogs in Vero cells, SAR follow-up, cytotoxicity control for West Nile virus antiviral project, cell-based, set II (AID 2402); format: functional; details: Chlorocebus sabaeus
Vero [6] = assay: Vero E6 cell cytotoxicity, SAR follow-up, cytotoxicity control for West Nile virus antiviral project, synthesized analogs (AID 2244); format: functional; details: Chlorocebus sabaeus
Vero [7] = assay: West Nile virus CPE inhibition, SAR follow-up, cell-based, synthesized analogs (AID 2238); format: functional; details: Chlorocebus sabaeus
[8] = target: G-protein coupled receptor 35 (Homo sapiens, UniProt Q9HC97); assay: GPR35 antagonists blocking zaprinast-driven arrestin recruitment, primary screen, imaging, U2OS, beta-arrestin-GFP, zaprinast agonist (AID 2058); format: functional;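 note: antagonist potency meaning inhibition of agonist-induced arrestin redistribution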
[9] = growth suppression of PTEN-null colon cells, dose response, cell-based, HCT116 PTEN knockout (AID 1047); format: functional;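 note: HCT116 colon tumor cells with PTEN knocked out; cells exposed to compound for 60 hours before readout; potency for loss of cell viability measured by luminescence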
[10] = growth suppression of beta-catenin-knockout colon cells, dose response, cell-based, HCT116, human colon tumor (AID 1045); format: functional;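 note: HCT116 colon tumor cells with beta catenin knocked out; cells exposed to compound for 60 hours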
[11] = target: T1, Replicative DNA helicase DnaB (Mycobacterium tuberculosis, UniProt P9WMR3); assay: DnaB intein splicing inhibitors, dose response, biochemical, cell-free fluorescence (AID 449749); format: functional
T1 sequence (P9WMR3 whole entry): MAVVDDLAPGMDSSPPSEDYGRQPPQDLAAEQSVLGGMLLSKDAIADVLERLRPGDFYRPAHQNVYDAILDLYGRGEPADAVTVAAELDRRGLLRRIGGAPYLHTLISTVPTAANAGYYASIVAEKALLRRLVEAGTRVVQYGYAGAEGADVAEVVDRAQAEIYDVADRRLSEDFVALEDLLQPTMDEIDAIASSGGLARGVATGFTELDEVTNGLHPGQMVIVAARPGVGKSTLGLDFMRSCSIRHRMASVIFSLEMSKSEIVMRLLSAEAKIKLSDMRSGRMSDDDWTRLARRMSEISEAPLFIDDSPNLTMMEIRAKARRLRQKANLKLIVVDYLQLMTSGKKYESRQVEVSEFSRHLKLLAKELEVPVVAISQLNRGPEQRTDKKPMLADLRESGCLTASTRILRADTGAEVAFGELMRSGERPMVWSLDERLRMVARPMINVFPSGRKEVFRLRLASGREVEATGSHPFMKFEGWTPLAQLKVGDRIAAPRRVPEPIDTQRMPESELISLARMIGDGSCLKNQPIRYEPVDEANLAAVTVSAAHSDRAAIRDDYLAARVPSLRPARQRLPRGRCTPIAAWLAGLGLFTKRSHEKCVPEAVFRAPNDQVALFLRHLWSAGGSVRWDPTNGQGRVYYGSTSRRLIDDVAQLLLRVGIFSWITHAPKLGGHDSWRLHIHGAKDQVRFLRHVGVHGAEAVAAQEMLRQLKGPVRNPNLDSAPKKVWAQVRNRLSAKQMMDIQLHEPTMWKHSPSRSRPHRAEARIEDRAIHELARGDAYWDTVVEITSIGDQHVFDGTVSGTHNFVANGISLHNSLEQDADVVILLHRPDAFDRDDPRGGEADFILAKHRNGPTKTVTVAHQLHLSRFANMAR

BJ = assay: cytotoxicity toward Ras-transformed BJeLR fibroblasts, dose response, cell-based, alamar blue fluorescence, cherrypicked samples (AID 2631); format: functional; details: Homo sapiens;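 note: confirmatory dose-response assay in RAS-dependent BJ fibroblasts engineered with TERT, LT and ST, with cytotoxicity read by fluorescence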
Protein RecA = target: T2, Protein RecA (Mycobacterium tuberculosis, UniProt P9WHJ3); assay: Fluorescence Cell-Free Homogeneous Dose Retest to Identify Inhibitors of RecA-Intein Splicing Activity. [Related pubchem assays (depositor defined):AID2097, AID2223, AID489010, AID492950]; format: functional
T2 sequence (P9WHJ3 whole entry): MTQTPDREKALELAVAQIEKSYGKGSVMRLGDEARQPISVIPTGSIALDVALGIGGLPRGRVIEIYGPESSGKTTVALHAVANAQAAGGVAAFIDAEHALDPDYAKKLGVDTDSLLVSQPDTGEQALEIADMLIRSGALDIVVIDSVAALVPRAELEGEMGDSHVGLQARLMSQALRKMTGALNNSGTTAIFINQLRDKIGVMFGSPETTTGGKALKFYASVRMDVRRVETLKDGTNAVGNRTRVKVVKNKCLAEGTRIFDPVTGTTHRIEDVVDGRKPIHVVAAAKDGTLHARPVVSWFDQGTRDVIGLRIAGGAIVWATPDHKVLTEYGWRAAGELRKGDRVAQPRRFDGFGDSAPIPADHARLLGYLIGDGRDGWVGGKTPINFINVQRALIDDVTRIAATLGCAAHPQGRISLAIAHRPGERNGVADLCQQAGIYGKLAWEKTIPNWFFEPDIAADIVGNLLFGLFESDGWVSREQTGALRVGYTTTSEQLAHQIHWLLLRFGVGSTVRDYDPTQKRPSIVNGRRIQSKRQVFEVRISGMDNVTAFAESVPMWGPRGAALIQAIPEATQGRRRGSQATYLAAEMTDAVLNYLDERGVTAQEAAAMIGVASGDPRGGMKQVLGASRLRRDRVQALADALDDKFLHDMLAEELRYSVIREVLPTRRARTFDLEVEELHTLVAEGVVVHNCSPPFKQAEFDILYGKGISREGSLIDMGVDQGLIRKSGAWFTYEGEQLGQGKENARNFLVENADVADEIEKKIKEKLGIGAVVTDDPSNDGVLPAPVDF

INS1 = assay: beta cell apoptosis inhibitors, cytokine rescue, dose response, luminescence, retest (AID 449756); format: functional, cell-based; details: Rattus norvegicus;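 note: cell death triggered by IL-1 beta plus TNF-alpha plus IFN-gamma mixture; protective hits raise ATP signal compared with cytokine alone wells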
Paired box protein Pax-8 = Paired box protein Pax-8 (Homo sapiens, UniProt Q06710); assay: inhibitors of PAX8-driven TPO luciferase reporter, dose response, RMG-I cells, cherry-pick (AID 687027); format: functional, cell-based;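 note: luciferase reporter driven by Pax8 target thyroperoxidase promoter measured by SteadyGlo luminescence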
[12] = target: G-protein coupled receptor 55 (Homo sapiens, UniProt Q9Y2T6); assay: GPR55 agonists via beta-arrestin recruitment, primary screen, imaging, U2OS cells, beta-arrestin-GFP redistribution (AID 1961); format: functional
[13] = target: Intestinal-type alkaline phosphatase (Homo sapiens, UniProt P09923); assay: Dose Response confirmation of uHTS hits from a small molecule inhibitors of human intestinal alkaline phosphatase via a luminescent assay. [Related pubchem assays (depositor defined):AID2544, AID2574]; format: functional
[14] = Late stage results from the probe development effort to identify inhibitors of the protein methylesterase PME-1: Luminescence-based counterscreen assay to identify cytotoxic compounds.; format: functional
[15] = target: Acylamino-acid-releasing enzyme (Homo sapiens, UniProt P13798); assay: PME-1 inhibitor potency by in-gel ABPP, dose response, selectivity assay for PME-1 inhibitor project, cell lysate, mouse brain cytosol, FP-rhodamine, panel member APEH Assay Panel member description: Inhibition of N-acylaminoacyl-peptide hydrolase (APEH) (anti-target) (AID 2366)
Beta-galactosidase = Beta-galactosidase (Escherichia coli, UniProt Q8VNN2); assay: beta-galactosidase enzyme inhibitors and activators, dose response, artefact control for CCR6 antagonist project, biochemical, E. coli enzyme, set 3 (AID 504712); format: functional
[16] = Shn3 3'UTR reporter inhibitors, dose response, cell-based, Clone20 osteoblasts, firefly luciferase, cherry-picked (AID 624132); format: functional;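 note: firefly luciferase luminescence from reporter carrying the Shn3 3'UTR in osteoblasts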
[17] = HepG2 cell cytotoxicity, dose response, cytotoxicity control for Shn3 inhibitor project, CellTiter-Glo, cherry-picked (AID 624134); format: functional, cell-based
[18] = control 3'UTR Renilla luciferase suppression, dose response, counter-screen for Shn3 inhibitor project, cell-based, Clone20-Shn3RL, cherry-picked (AID 624133); format: functional
[19] = target: Eukaryotic translation initiation factor 4H (Homo sapiens, UniProt Q15056); assay: eIF4H inhibition in translation initiation, SAR follow-up (AID 435011); format: functional
[20] = target: Polyadenylate-binding protein 1 (Homo sapiens, UniProt P11940); assay: PABP inhibition in translation initiation, SAR follow-up (AID 435018); format: functional
[21] = target: T3, Mannose-6-phosphate isomerase (Homo sapiens, UniProt P34949); assay: PMI enzyme inhibitors, confirmation, biochemical, fluorescence intensity (AID 1535)
T3 sequence (P34949 whole entry): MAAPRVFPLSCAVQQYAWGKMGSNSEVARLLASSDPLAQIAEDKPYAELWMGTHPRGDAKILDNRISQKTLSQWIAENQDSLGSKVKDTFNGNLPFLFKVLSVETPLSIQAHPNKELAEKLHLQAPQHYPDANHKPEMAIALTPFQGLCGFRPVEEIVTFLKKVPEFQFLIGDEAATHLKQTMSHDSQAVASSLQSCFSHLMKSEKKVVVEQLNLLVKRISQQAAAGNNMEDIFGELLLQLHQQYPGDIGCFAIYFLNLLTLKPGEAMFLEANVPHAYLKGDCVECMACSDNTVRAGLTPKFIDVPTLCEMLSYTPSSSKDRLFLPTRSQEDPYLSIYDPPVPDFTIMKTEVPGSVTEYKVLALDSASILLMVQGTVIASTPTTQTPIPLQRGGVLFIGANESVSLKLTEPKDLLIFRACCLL

Phosphomannomutase 2 = Phosphomannomutase 2 (Homo sapiens, UniProt O15305); assay: Counter screen SAR assay for PMM2 inhibitors via a fluorescence intensity assay. [Related pubchem assays (depositor defined):AID1545, AID1574]
[22] = target: Phosphoethanolamine/phosphocholine phosphatase (Homo sapiens, UniProt Q8TCT1); assay: SAR assay for compounds that inhibit PHOSPHO1. [Related pubchem assays (depositor defined):AID1545, AID1565, AID1574]
[23] = target: Melanin-concentrating hormone receptor 1 (Homo sapiens, UniProt Q99705); assay: Late-stage fluorescence-based counterscreen for antagonists of the G-protein coupled receptor 7 (GPR7): cell-based dose response assay to identify antagonists of the melanin-concentrating hormone receptor 1 (MCHR1). [Related pubchem assays (depositor defined):AID1861, AID1880, AID1952, AID2148, AID2251, AID2257, AID485339]; format: functional;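 note: stimulated with 30 nM MCH peptide agonist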
[24] = target: T4, Neuropeptides B/W receptor type 1 (Homo sapiens, UniProt P48145); assay: GPR7 antagonist potency, late-stage follow-up, cell-based, fluorescence, dose response (AID 463251); format: functional
T4 sequence (P48145 whole entry): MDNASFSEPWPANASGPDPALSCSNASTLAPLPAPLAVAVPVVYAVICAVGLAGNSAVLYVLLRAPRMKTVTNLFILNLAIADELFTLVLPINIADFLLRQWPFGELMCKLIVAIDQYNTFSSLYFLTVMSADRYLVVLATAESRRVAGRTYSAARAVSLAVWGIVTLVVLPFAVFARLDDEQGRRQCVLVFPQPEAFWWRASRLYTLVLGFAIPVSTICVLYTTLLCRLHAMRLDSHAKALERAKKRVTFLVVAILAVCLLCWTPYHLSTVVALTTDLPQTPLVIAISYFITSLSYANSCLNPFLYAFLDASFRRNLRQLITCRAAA

Phosphomannomutase 2, sequence (O15305 whole entry): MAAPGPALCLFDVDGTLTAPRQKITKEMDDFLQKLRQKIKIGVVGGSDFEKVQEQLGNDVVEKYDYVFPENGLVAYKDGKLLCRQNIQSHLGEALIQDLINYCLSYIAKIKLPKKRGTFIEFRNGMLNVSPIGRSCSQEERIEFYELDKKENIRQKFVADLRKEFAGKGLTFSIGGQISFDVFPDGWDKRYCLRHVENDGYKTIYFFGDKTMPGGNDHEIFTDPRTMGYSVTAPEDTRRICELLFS
Protein Rev, sequence (P04618 whole entry): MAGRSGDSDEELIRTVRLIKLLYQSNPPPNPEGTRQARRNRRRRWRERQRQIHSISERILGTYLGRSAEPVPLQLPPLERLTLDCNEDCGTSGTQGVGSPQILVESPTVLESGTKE
Eukaryotic translation initiation factor 4E, sequence (P63073 whole entry): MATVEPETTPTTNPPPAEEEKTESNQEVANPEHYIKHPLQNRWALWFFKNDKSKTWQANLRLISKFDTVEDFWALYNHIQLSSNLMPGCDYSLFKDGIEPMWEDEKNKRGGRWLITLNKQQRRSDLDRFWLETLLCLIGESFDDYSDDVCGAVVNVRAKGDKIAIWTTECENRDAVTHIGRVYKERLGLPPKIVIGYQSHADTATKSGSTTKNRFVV
Paired box protein Pax-8, sequence (Q06710 whole entry): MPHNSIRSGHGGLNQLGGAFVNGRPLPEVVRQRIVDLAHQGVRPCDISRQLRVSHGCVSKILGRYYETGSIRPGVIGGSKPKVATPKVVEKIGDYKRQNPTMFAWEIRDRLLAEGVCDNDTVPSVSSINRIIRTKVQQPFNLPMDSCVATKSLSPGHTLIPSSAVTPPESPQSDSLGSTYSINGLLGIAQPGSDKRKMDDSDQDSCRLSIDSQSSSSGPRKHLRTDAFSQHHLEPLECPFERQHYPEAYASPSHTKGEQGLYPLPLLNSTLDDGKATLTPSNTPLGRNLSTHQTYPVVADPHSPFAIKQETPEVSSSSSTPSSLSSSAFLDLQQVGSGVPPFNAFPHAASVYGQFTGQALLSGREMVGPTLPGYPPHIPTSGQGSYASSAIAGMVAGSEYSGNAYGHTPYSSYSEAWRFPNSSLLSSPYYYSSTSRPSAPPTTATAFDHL
Polyadenylate-binding protein 1, sequence (P11940 whole entry): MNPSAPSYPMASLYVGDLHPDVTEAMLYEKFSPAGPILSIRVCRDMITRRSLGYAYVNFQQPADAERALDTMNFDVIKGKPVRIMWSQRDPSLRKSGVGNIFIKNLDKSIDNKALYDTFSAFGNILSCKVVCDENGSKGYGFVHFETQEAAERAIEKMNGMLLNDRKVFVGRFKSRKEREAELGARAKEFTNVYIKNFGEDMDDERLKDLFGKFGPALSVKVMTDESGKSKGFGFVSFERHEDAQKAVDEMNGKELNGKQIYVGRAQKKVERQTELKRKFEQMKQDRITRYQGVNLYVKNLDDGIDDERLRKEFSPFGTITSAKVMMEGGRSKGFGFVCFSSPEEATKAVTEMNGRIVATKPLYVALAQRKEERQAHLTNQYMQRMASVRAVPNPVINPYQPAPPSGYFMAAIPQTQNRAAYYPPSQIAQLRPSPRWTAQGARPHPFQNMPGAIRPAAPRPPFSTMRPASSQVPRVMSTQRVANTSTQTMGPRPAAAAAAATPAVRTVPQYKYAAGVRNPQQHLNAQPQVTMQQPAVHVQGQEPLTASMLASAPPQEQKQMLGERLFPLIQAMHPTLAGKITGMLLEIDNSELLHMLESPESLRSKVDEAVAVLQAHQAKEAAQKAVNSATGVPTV
Intestinal-type alkaline phosphatase, sequence (P09923 whole entry): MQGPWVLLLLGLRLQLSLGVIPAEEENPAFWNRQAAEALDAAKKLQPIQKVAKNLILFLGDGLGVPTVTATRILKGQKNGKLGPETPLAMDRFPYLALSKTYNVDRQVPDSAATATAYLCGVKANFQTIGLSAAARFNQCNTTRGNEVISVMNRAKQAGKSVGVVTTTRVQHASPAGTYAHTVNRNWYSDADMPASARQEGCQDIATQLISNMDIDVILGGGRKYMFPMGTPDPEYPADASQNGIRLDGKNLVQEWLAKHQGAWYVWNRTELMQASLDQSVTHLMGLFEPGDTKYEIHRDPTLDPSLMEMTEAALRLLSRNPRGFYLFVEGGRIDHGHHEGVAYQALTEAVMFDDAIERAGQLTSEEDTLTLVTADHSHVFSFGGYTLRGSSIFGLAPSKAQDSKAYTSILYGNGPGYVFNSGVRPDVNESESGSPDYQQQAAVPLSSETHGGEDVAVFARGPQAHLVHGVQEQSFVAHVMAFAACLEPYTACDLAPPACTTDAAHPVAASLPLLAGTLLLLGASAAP
Melanin-concentrating hormone receptor 1, sequence (Q99705 whole entry): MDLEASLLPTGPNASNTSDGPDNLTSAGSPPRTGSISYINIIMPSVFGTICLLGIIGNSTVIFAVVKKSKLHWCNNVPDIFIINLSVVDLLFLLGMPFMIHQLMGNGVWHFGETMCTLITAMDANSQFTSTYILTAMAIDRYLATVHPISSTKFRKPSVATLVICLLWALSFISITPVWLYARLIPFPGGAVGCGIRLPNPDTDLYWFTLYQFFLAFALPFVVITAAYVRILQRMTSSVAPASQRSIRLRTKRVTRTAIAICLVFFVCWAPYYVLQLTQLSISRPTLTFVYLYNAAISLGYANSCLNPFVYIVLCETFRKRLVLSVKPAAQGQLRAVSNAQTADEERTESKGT
G-protein coupled receptor 55, sequence (Q9Y2T6 whole entry): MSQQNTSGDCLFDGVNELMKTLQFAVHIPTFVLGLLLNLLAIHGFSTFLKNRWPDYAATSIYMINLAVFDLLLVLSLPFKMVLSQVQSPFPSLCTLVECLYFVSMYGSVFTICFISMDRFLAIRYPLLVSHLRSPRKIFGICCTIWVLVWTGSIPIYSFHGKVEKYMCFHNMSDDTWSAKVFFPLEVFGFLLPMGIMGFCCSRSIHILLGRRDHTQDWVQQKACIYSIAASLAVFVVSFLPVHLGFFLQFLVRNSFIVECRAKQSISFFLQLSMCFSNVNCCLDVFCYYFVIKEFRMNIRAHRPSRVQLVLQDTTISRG
G-protein coupled receptor 35, sequence (Q9HC97 whole entry): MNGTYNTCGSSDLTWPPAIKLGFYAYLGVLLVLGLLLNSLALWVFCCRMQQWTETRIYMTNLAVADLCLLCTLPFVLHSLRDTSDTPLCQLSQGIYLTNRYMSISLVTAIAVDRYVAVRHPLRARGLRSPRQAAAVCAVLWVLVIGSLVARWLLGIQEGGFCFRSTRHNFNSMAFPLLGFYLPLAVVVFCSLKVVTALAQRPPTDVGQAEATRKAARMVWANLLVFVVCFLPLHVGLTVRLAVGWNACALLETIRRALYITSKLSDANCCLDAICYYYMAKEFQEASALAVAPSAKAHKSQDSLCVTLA
Beta-galactosidase, sequence (Q8VNN2 whole entry): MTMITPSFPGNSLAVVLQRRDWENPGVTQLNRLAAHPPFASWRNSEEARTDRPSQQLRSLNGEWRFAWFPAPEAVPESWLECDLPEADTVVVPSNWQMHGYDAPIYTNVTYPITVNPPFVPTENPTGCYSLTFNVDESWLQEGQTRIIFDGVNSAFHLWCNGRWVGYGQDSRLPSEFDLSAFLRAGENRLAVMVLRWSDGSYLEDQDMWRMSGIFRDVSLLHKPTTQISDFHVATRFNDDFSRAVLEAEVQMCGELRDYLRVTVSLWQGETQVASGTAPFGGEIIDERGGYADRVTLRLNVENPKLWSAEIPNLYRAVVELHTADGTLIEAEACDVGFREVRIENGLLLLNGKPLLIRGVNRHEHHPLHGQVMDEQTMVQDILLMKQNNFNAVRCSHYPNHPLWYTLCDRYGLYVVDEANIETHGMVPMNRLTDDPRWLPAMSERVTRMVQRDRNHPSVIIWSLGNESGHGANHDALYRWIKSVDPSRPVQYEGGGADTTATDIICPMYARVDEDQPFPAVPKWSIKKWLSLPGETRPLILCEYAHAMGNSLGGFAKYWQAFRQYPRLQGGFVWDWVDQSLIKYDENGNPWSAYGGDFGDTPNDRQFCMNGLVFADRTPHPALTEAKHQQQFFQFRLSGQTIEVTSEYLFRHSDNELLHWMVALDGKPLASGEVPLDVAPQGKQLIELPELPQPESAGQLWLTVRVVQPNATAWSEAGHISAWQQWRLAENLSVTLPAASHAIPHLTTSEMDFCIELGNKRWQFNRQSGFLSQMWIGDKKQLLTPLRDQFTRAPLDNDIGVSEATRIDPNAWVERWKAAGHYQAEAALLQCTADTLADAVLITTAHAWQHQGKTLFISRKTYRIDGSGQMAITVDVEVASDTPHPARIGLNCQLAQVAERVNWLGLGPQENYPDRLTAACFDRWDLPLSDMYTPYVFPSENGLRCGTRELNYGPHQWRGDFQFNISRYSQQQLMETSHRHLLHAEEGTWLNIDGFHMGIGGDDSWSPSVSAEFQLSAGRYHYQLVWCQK
Genome polyprotein, sequence (Q2Q167 whole entry): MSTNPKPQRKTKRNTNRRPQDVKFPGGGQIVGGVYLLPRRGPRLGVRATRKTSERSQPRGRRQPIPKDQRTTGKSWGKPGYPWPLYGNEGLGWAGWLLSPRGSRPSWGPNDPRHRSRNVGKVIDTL
Female germline-specific tumor suppressor gld-1, sequence (Q17339 whole entry): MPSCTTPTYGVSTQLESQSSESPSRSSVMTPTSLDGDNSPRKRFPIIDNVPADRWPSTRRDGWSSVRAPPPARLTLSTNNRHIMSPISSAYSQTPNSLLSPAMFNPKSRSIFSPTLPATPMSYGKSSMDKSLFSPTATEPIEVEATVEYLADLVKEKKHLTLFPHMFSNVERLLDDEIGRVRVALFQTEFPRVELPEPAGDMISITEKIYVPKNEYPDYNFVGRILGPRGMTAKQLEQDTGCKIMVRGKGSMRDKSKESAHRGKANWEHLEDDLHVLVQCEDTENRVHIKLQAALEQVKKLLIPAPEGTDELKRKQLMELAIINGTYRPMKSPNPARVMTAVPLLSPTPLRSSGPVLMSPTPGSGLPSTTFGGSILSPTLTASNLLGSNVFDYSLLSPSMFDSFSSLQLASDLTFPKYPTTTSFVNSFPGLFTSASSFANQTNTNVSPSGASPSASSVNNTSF

With `CC1=CC(=O)c2c(O)ccc(O)c2C1=O` the IC50 (Protein Rev) was > 75.4 µM (not active), the IC50 (Genome polyprotein) was > 49.8 µM (not active) and the IC50 [1] was 5.58 µM (active). The CC50 [2] was 12.9 µM (active) and the IC50 [3] was 10.3 µM (active).

In the case of `O=C(CSc1nc2ccccc2c(=O)n1-c1ccc(Cl)c(Cl)c1)Nc1ccc2c(c1)CCC2`, the CC50 (Vero [4]) is reported as > 66.6 µM (active), the CC50 (Vero [5]) is reported as > 100 µM (active) and the CC50 (Vero [6]) is reported as > 40 µM (active). For the same compound, the IC50 (Vero [7]) was 17.3 µM (active).

With `O=S(=O)(/C(=C/c1ccc(C(F)(F)F)cc1)c1nc2ccccc2[nH]1)c1ccccc1` the IC50 [8] was > 32 µM (inactive), the EC50 [9] was 1.89 µM (active) and the EC50 [10] was 1.68 µM (active). The AC50 [11] was 3.54 µM (active), the EC50 (BJ) was 601 nM (active) and the EC50 (Protein RecA) was 5.85 µM (active). The AC50 (INS1) was 4.43 µM (active) and the AC50 (Paired box protein Pax-8) was 2.82 µM (active).

In the case of `COC(=O)c1c(NC(=O)CN(c2ccccc2)S(C)(=O)=O)sc2c1CCCC2`, the EC50 [12] is reported as 577 nM (active).

With `O=C(NCCCN1CCOCC1)c1ccc2c(c1)N(Cc1ccc(Cl)cc1)C(=O)c1ccccc1[S+]2[O-]` (configuration not stated) the IC50 [13] was > 100 µM (inactive).

For `N#C/C(=C\c1cccn1S(=O)(=O)c1cccc([N+](=O)[O-])c1)S(=O)(=O)c1ccc(F)cc1`, the CC50 [14] was 100 µM (active) and the IC50 [15] was > 50 µM (inactive).

For `O=C1CC(Sc2nnc(-c3ccccc3O)o2)C(=O)N1c1ccccc1` (configuration not stated), the IC50 (Beta-galactosidase) was > 66.6 µM (inactive), the AC50 [16] was 12.9 µM (active) and the AC50 [17] was 45.2 µM (active). The AC50 [18] was 17.8 µM (active).

For `Cc1cc(Cl)ccc1NC(=O)C1CCN(C(=O)c2cccs2)CC1`, the IC50 [19] was > 100 µM (inactive) and the IC50 [20] was > 100 µM (inactive).

With `O=c1c2ccccc2sn1-c1cc(S(=O)(=O)N2CCOCC2)ccc1N1CCCCC1` the IC50 [21] was 39.2 µM (active), the IC50 (Phosphomannomutase 2) was > 100 µM (inactive) and the IC50 [22] was 39.4 µM (inactive).

With `COc1ccc(Oc2c(Cl)cnn(-c3cccc(C#N)c3)c2=O)cc1` the IC50 [23] was 14.2 µM (inactive) and the IC50 [24] was 2.8 µM (active).
